According to publication PMC5095173, “Disulfide-activated protein kinase G Iα regulates cardiac diastolic relaxation and fine-tunes the Frank–Starling response” (Nature Communications, 2016):
Where no end group is shown, it is not given here. [ ]: non-standard residue; d: D form. pT = C[C@@H](OP(=O)(O)O)[C@H](N)C(=O)O; Met(O) = CS(=O)CC[C@H](N)C(=O)O; pS = N[C@@H](COP(=O)(O)O)C(=O)O

Experiments:
[1] = test system: PKGIα (analogue-sensitive M438G), disulfide-activated; test: Chemical genetic phosphoproteomic screen, disulfide-activated PKGIα M438G versus unactivated control; format: biochemical, human PKGIα; substrates in rat heart homogenate; details: for log2 fold change Disulfide vs Control: control = PKGIα C42S/M438G; for log2 fold changes: Group 2 (disulfide-activated) vs Group 3 (control); for Log2 fold change in phosphorylation, Disulfide versus control: disulfide-activated PKGIα M438G vs basal, 1 h, 30 °C, pH 7.5, rat heart homogenate, label-free LC–MS/MS, * P<0.05 Dunnett: only phospholamban S16
From the text: (§1) We employed a chemical genetic method[18] to identify direct substrates of cGMP-activated PKGIα and disulfide bond-activated PKGIα in heart tissue. This method involves mutation of the ATP binding-site of the kinase of interest so that it can accept a ‘bulky' N6-alkylated ATP analogue for example, N6^−phenylethyl ATP. An oxygen atom on the γ phosphate is also replaced with a sulfur atom—giving an N6-alkylated ATPγS analogue—so that the mutant kinase catalyses the transfer of a thiophosphate group (–PO3S^3−) to its substrates instead of a phosphate. The thiophosphate group is nucleophilic, providing a basis for substrates of the analogue-sensitive kinase to be purified by a ‘covalent capture' protocol. LC–MS/MS allows identification of the substrate and localization of the phosphorylation site. Thiophosphorylated proteins can also be detected with a thiophosphate ester-specific antibody. Analogue-sensitive mutants of PKGIα and PKGIα C42S (which cannot form the activating intermolecular disulfide bond) were generated by mutating Met438 in the ATP-binding domain to Gly. This mutation was chosen based on a previous study where an analogue-sensitive mutant of the catalytic subunit of PKA—which shares sequence homology with PKGIα—was engineered. Detailed protocols are given below.
(§2) A pCDNA3 expression vector encoding human FLAG-tagged PKGIα (ref. [41]) underwent site-directed mutagenesis to generate constructs for untagged WT, C42S, M438G and C42S/M438G PKGIα. Mutations were introduced using the QuikChange II Site-Directed Mutagenesis Kit (Agilent) according to the manufacturer's instructions. Expression and purification of the PKGIα mutants was performed according to a published method[42] as follows: suspension FreeStyle 293-F cells (ThermoFisher Scientific) were transfected with the appropriate PKGIα construct using the stable cationic polymer polyethyleneimine (PEI) as a transfection reagent. After ∼72 h cells were harvested by centrifugation (400g; room temperature; 15 min), re-suspended in ice cold lysis buffer (25 mM sodium phosphate buffer pH 6.8; 10 mM ethylenediaminetetraacetic acid (EDTA); 100 mM NaCl; 10 mM benzamidine hydrochloride; and 10 mM dithiothreitol (DTT)) and frozen in liquid N2. Cells were lysed by three freeze (liquid N2)-thaw (37 °C) cycles and the lysate was clarified by centrifugation at 140,000g and 4 °C for 30 min. The soluble protein fraction was loaded onto a pre-equilibrated 8-(2-aminoethylamino)adenosine-3′, 5′-cyclic monophosphate column (8-AEA-cAMP agarose; BioLog, Germany) followed by washing with 20 column volumes of lysis buffer. The column was further washed with lysis buffer +3 M NaCl (5 column volumes) and PKGIα was then eluted with lysis buffer +150 mM NaCl and 500 μM cAMP. Removal of cAMP and buffer exchange was achieved by extensive dialysis against 25 mM sodium phosphate buffer pH 6.8, 2 mM EDTA and 100 mM NaCl. For ITC analysis, WT PKGIα was incubated with 10 mM lipoic acid for 2 h on ice to obtain ∼100% disulfide dimer (confirmed by SDS-PAGE). Oxidized WT or C42S PKGIα was further purified by size exclusion chromatography using a HiLoad 16/600 Superdex 200 pg column (GE Healthcare) with 50 mM sodium phosphate buffer pH 7.4 and 100 mM NaCl. Proteins were concentrated using Amicon Ultra centrifugal filter devices (Merck Millipore). DTT was absent in storage buffers so that the activating disulfide bond would not be reduced and so that the PKGIα M438G mutant would be oxidized to disulfide dimer in the presence of air (confirmed by SDS-PAGE). Protein concentration was determined by Pierce BCA assay (ThermoFisher) and enzyme activity was confirmed using the Omnia kinase assay kit (ThermoFisher).
(§3) Male Wistar rats (9–10 weeks; body weight 300–330 g) were euthanized by intraperitoneal injection of sodium pentobarbitone (200 mg kg^−1) with heparin (500 USP units). […]

[2] = test system: PKGIα (analogue-sensitive C42S/M438G), cGMP-activated; test: Chemical genetic phosphoproteomic screen, cGMP-activated PKGIα C42S/M438G versus unactivated control; format: biochemical, human PKGIα; substrates in rat heart homogenate; details: for log2 fold change cGMP vs Control: control = PKGIα C42S/M438G; for log2 fold changes: Group 1 (cGMP-activated) vs Group 3 (control); for Log2 fold change in phosphorylation, cGMP versus control: PKGIα C42S/M438G + 100 μM cGMP vs basal, 1 h, 30 °C, pH 7.5, rat heart homogenate, label-free LC–MS/MS, n=4, * P<0.05 Dunnett: all values except phospholamban S16
From the text: as §1, §2, §3

[3] = test system: PKGIα (VASP phosphorylation) in mouse embryonic fibroblasts; details: ref Muller et al. Free Radic Biol Med 53, 1574-1583 (2012); cited from earlier work
From the text: This transgenic model was developed by the Sadoshima lab (Newark, USA) and the data are included in a PhD thesis (2015) by Daniel Stubbert from this lab. We have amended the manuscript so that it now states that the ...

PLN threonine 17 = details: cardiac myocytes exposed to hydrogen peroxide; no reference given; cited from earlier work
PKGIα disulfide dimer = details: HEK cells, murine aortic rings or mesenteric blood vessels; ref Burgoyne et al. Hypertension 60, 1301-1308 (2012); Rudyk et al. Circulation 126, 287-295 (2012); cited from earlier work

| Compound | log2 fold change Disulfide vs Control [1] | log2 fold change cGMP vs Control [2] | also measured |
| --- | --- | --- | --- |
| Mybbp1a pS1318 (ARLSLVSR; also: phosphoserine (pS1318), site in peptide not given here) | -0.09923 | -0.9192 |  |
| Clip2 pS353 | 0.983 | 2.051 |  |
| RApSTIEMPQQAR [phosphopeptide from the cardiac protein phospholamban] |  |  | phosphopeptide abundance relative to control, PKGIα activated by Cys42 oxidation ([1]; PLN pSer16, P<0.05, n=4): significantly increased relative to control |
| Wipf1 pS324 (NLSLTSPTPPLPSPGR; also: phosphoserine pS324, several Ser, place not given here) |  |  | log2 fold changes [1]: -0.2547; log2 fold changes [2]: 2.215 |
| Microtubule-associated protein 1A: PKGIα substrate, phospho site S460 |  |  | Log2 fold change in phosphorylation, Disulfide versus control ([1]; n=4): 0.59; Log2 fold change in phosphorylation, cGMP versus control [2]: 2.41* |
| Pln pS16 (RA[pS]TIEMPQQAR; not fully specified (residue 7)) | 0.4097 | -0.8119 |  |
| Mylk3 pS155 (KG[pS]LADGPEENKEQAEVAGVKPK) | 1.131 | 3.16 |  |
| Troponin I, cardiac muscle: PKGIα substrate, phospho site S167 |  |  | Log2 fold change in phosphorylation, Disulfide versus control ([1]; n=4): 1.65; Log2 fold change in phosphorylation, cGMP versus control [2]: 3.49* |
| OO [hydrogen peroxide] |  |  | effect of pre-oxidation of PKGIα on its activation by cGMP [3]: slightly attenuated; PLN threonine 17 phosphorylation (PLN threonine 17): will become phosphorylated |
| Tnni3 pS151 |  |  | log2 fold changes [1]: -0.2077; log2 fold changes [2]: 2.921 |
| Mink1 pS997 (KG[pS]VVNVNPTNTR) | 0.583 | 0.5982 |  |
| Speg pS2019 |  |  | log2 fold changes [1]: 1.452; log2 fold changes [2]: 1.632 |
| Prrc2a pS457 | 0.2134 | 0.5056 |  |
| Speg pS2135 |  |  | log2 fold changes [1]: 1.764; log2 fold changes [2]: 4.01 |
| Pcnp pS95 (KASAISIR; also: phosphoserine (pS95), site in peptide not given here) | 0.1824 | -1.793 |  |
| Trmt10c pT377 (RKH[pT]GYLEVPEHSQAAFR) | 0.4487 | 1.984 |  |
| Protein SET: PKGIα substrate, phospho site S7 |  |  | Log2 fold change in phosphorylation, Disulfide versus control ([1]; n=4): 1.76; Log2 fold change in phosphorylation, cGMP versus control [2]: 3.80* |
| CAP-Gly domain-containing linker protein 2: PKGIα substrate, phospho site S353 |  |  | Log2 fold change in phosphorylation, Disulfide versus control ([1]; n=4): 0.98; Log2 fold change in phosphorylation, cGMP versus control [2]: 2.05* |
| Nucb1 pS368 (AQRL[pS]QETEALGR) | 3.208 | 5.775 |  |
| E3 ubiquitin-protein ligase TRIP12: PKGIα substrate, phospho site S1073 |  |  | Log2 fold change in phosphorylation, Disulfide versus control ([1]; n=4): 0.66; Log2 fold change in phosphorylation, cGMP versus control [2]: 1.63* |

| Compound | log2 fold change Disulfide vs Control [1] | log2 fold change cGMP vs Control [2] | also measured |
| --- | --- | --- | --- |
| Ryr2 pS2798 (RISQTSQVSIDAAHGYSPR; also: phosphoserine (pS2798), site in peptide not given here) |  |  | log2 fold changes [1]: -0.1315; log2 fold changes [2]: 1.758 |
| Snx17 pS437 (LSSKLSAVSLR; also: phosphoserine pS437, several Ser, place not given here) |  |  | log2 fold changes [1]: 1.271; log2 fold changes [2]: 3.5 |
| CC(=O)OC[C@H]1O[C@@H]([S-])[C@H](OC(C)=O)[C@@H](OC(C)=O)[C@@H]1OC(C)=O.CCP(CC)CC.[Au+] [auranofin] |  |  | PKGIα disulfide dimer upon treatment (PKGIα disulfide dimer): accumulation of PKGIα disulfide dimer |
| Mthfd1 pT545 (KITIGQAPTEK; also: phosphothreonine (pT545), site in peptide not given here) | 1.475 | 3.681 |  |
| Foxo1 pS270 | 0.7421 | 0.9588 |  |
| Olr1571 pS170 (AISSSQGK; also: phosphoserine (pS170), site in peptide not given here) | -1.218 | -4.008 |  |
| Limd1 pS303 | 2.11 | 2.801 |  |
| Stmn1 pS31 (SKESVPEFPLSPPK; also: phosphoserine pS31, several Ser, place not given here) |  |  | log2 fold changes [1]: 0.3093; log2 fold changes [2]: 4.264 |
| Mrps31 pS191 (RVSFTQIISNMK; also: phosphoserine (pS191), site in peptide not given here) | 0.1676 | 0.6921 |  |
| Cardiac phospholamban: PKGIα substrate, phospho site S16 (MEKVQYLTRSAIRRA[pS]TIEMPQQARQNLQNLFINFCLILICLLLICIIVMLL; cysteine pairing not given here; UniProt P61016 1-52, looked up) |  |  | Log2 fold change in phosphorylation, Disulfide versus control ([1]; n=4): 0.41*; Log2 fold change in phosphorylation, cGMP versus control [2]: −0.81 |
| Pde4a pS140 (RE[pS]FLYR) | 1.1526 | 1.223 |  |
| Rnf123 pS690 (FLSTAAVSL[Met(O)]TPR; also: phosphoserine, site not given here) | -1.634 | 3.971 |  |
| Sarnp pS138 (GLSSDTKP[Met(O)]VNLDK; also: phosphoserine, site not given here) |  |  | log2 fold changes [1]: 1.9607; log2 fold changes [2]: 4.118 |
| Prkcdbp pS199 (KG[pS]EAAQPTPVKPPR) | 1.3478 | 1.54 |  |
| Set pS7 (RQ[pS]AILPQPK) | 1.764 | 3.804 |  |
| Nucb2 pS85 (SGRLSQELDLVSHK; also: phosphoserine (pS85), site in peptide not given here) | -0.4443 | -1.746 |  |
| Trip12 pS1073 | 0.661 | 1.63 |  |
| Tnni3 pS167 (AKE[pS]LDLR) |  |  | log2 fold changes [1]: 1.654; log2 fold changes [2]: 3.492 |
| Speg pS2410 |  |  | log2 fold changes [1]: -0.1096; log2 fold changes [2]: -0.7401 |
| Map1a pS460 | 0.5914 | 2.406 |  |
